The values that follow are results of earlier work, collected in patent US20110070305A1, “SUSTAINED RELEASE PHARMACEUTICAL COMPOSITION CONTAINING MEBICAR” (ALPHARX INC., priority 2009, published 2011).

Molecules are shown by their SMILES.

The conditions of series [1]: orally administered.

In the case of `CN1C(=O)N(C)C2C1N(C)C(=O)N2C` (stereo not drawn) [Mebicar], in series [1], the half-life result is listed as “approximately 3 hours”. Further, the “solubility in alcohol and most polar organic solvents” value (alcohol and most polar organic solvents) is given as “soluble”. Moreover, the solubility in water result (water, ambient temperature) is reported as “about 50%”.
